# Where “and” joins values, the source holds several entries; their conditions need not be identical. Identical values can stand only once. Entries after “also recorded” stand apart in the source; their conditions may differ. Like-named read-outs stand apart in the source and are kept apart here.
# Tests used:
# hNav1.7 [1] = biological target: T1, hNav1.7 (Homo sapiens, UniProt Q15858); test: cell-based; assay type: cell-based
# in vivo [2] = conditions: female, Sprague-Dawley, rat, sc
# [3] = for mean Cmax over the rat DRG Nav1.7: Sprague-Dawley rats
# [4] = CD-1 male mouse, 2 mg/kg s.c.
# in vivo [5] = conditions: male, CD-1, mouse, sc, 2 mg/kg
# hNav1.6 = hNav1.6 (Homo sapiens, UniProt Q9UQD0); test: cell-based; assay type: cell-based; conditions: Table 15; for Nav1.6/Nav1.7: ratio of PX tonic IC50 values; for IC50: read-out: PX hNav1.6 Tonic IC50
# [6] = system: TTX-sensitive Nav channels in mouse DRG neuron; conditions: for 1.x/1.7: partially inactivated, mTTX-S / hNav1.7
# hNav1.5 = hNav1.5 (Homo sapiens, UniProt Q14524); test: cell-based; conditions: Table 12; ratio of PX tonic IC50 values
# [7] = system: TTX-sensitive Nav channels in Sprague Dawley rat DRG neuron
# hNav1.7 [8] = biological target: T1, hNav1.7; test: cell-based; assay type: cell-based; conditions: for block of hNav1.7 current, in words: 100 pM; for 1.x/1.7: hNav1.7 / hNav1.7
# hNav1.4 = hNav1.4 (Homo sapiens, UniProt P35499); test: cell-based; assay type: cell-based; conditions: Table 12
# mouse Nav1.4 = mouse Nav1.4 (Mus musculus, UniProt Q9ER60); test: cell-based; conditions: for IC50: PatchXpress, tonic block, mouse Nav1.4, read-out: PX mNav1.4 Tonic IC50
# rNav1.7 = rNav1.7 (Rattus norvegicus, UniProt O08562); test: cell-based; conditions: for IC50: PatchXpress, tonic block, rat Nav1.7, read-out: PX rNav1.7 Tonic IC50
# mNav1.7 = mNav1.7 (Mus musculus, UniProt Q62205); test: cell-based; conditions: for IC50: PatchXpress, tonic block, mouse Nav1.7, read-out: PX mNav1.7 Tonic IC50
# [9] = Table 15, read-out: PX hNav1.7 Tonic IC50
# Sequence of hNav1.6 (Q9UQD0 whole entry): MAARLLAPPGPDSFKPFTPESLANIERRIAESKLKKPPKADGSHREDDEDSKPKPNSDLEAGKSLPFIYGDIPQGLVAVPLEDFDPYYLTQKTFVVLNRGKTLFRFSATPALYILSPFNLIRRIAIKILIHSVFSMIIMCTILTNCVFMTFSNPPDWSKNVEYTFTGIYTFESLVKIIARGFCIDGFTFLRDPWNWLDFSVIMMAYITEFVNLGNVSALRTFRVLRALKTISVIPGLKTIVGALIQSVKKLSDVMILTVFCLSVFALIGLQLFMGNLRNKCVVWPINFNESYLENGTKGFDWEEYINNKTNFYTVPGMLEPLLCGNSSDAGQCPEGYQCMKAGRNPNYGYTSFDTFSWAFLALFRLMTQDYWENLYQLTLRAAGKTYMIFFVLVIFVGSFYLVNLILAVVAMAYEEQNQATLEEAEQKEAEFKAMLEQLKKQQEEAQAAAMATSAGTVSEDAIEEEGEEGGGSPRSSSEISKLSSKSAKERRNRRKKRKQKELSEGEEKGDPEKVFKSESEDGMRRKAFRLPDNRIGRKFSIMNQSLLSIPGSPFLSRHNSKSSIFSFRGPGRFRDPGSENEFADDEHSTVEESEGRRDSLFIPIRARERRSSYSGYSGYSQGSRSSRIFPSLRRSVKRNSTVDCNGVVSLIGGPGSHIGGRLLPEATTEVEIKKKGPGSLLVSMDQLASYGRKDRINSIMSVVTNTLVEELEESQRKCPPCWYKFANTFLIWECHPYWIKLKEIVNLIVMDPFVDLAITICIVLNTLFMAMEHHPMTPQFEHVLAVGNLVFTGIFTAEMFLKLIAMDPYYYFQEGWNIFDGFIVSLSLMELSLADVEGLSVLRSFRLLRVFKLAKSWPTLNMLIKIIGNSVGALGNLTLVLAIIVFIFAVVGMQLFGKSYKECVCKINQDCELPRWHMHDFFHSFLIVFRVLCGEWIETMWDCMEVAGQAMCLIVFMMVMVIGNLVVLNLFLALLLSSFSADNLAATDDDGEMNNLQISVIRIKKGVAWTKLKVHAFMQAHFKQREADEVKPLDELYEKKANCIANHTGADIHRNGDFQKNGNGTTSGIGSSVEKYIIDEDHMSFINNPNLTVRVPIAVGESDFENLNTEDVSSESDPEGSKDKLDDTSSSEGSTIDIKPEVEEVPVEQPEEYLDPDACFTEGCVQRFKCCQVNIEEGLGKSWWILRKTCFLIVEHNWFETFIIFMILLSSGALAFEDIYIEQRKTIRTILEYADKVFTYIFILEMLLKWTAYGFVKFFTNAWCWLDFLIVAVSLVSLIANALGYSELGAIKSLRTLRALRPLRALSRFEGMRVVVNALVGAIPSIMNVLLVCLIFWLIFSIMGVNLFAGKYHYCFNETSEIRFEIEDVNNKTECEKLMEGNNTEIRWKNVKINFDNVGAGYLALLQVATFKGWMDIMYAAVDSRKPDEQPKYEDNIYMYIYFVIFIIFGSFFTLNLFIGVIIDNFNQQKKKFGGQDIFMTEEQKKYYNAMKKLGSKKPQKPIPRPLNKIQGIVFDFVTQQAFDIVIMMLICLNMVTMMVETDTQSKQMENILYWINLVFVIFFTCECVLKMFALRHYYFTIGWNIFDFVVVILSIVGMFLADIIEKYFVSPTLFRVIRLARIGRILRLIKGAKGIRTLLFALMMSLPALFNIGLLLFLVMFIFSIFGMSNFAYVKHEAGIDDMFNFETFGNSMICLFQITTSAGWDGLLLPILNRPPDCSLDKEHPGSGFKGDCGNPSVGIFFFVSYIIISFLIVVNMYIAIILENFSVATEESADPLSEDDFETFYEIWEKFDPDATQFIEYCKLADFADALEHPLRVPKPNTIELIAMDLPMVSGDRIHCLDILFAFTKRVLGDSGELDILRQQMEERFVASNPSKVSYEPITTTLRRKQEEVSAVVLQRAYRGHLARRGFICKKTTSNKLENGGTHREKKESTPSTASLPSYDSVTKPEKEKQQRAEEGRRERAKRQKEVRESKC
# Sequence of rNav1.7 (O08562 whole entry): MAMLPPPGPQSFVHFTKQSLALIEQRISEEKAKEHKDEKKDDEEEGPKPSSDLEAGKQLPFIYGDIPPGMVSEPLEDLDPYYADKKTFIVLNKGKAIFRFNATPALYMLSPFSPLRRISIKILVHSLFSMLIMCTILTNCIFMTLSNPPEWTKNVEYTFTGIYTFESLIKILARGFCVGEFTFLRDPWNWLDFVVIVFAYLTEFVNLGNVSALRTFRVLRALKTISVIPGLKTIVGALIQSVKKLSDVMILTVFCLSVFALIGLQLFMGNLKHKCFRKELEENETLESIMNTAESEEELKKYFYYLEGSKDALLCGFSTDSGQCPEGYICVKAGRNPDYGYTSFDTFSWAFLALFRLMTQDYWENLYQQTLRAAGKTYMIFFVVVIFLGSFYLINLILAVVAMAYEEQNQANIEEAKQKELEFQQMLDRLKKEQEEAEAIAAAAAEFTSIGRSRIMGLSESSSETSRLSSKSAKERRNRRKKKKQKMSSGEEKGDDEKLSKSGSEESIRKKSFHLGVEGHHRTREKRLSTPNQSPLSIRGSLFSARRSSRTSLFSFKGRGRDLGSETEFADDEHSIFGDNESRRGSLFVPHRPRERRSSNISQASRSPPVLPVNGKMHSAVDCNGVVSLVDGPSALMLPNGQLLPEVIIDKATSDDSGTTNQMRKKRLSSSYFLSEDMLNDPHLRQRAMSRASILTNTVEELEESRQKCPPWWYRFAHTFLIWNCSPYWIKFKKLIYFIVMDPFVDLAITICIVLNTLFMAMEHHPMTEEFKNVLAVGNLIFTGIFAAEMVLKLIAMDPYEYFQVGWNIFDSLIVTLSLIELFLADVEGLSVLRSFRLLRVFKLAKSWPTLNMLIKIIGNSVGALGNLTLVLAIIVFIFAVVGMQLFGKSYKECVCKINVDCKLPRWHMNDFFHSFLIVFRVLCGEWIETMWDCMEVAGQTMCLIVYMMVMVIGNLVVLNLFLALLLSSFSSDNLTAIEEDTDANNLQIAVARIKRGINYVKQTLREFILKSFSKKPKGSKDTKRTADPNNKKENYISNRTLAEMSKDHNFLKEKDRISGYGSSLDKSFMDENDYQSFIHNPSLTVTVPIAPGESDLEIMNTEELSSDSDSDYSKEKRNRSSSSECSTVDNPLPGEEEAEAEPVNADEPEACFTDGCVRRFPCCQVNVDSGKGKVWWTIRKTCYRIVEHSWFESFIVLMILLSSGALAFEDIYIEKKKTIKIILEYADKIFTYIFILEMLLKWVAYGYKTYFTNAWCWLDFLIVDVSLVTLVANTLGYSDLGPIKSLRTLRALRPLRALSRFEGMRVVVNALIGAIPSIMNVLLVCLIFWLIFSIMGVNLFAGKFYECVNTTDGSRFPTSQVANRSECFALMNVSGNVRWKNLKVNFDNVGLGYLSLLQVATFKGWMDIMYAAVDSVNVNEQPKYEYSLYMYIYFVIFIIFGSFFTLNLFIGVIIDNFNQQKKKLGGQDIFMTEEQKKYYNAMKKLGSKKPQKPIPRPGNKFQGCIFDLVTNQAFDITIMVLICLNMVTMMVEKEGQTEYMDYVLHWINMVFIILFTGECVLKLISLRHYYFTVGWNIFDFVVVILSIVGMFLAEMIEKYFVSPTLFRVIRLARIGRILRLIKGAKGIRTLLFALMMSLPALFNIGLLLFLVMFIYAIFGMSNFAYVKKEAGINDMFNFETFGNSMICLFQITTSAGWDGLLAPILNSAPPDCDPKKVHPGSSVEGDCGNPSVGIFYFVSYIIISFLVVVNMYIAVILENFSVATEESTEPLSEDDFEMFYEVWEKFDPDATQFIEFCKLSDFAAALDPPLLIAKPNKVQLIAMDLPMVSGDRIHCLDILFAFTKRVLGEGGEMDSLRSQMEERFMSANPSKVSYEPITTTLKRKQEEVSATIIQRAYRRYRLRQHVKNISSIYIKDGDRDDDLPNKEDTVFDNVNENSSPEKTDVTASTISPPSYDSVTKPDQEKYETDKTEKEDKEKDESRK
molecule,measurement,setting,value
C#CC[C@@H]1NC(=O)[C@@H]2CSSC[C@H](NC(=O)[C@H](Cc3ccc(O)cc3)NC(=O)[C@@H](N)CC#N)C(=O)N[C@@H](CCC(N)=O)C(=O)N[C@@H](CCCCN)C(=O)N[C@@H](Cc3c[nH]c4ccccc34)C(=O)N[C@@H](CCCC)C(=O)N[C@@H](Cc3c[nH]c4ccccc34)C(=O)N[C@@H]([C@@H](C)O)C(=O)N[C@H]3CSSC[C@H](NC(=O)[C@H](CCCNC(=N)N)NC(=O)[C@H](CC(C)C)NC(=O)CNC1=O)C(=O)N[C@@H](CCCCN)C(=O)N[C@@H](CC(C)C)C(=O)N[C@@H](Cc1c[nH]c4ccccc14)C(=O)N[C@H](C(=O)N[C@@H](CCCNC(=N)N)C(=O)N[C@@H](CCCCN)C(=O)N[C@@H](CCC(=O)O)C(=O)N[C@H](C(N)=O)[C@@H](C)CC)CSSC[C@H](NC(=O)[C@H](C)NC(=O)[C@H](CCCNC(=N)N)NC(=O)[C@H](CCCCN)NC(=O)[C@H](CO)NC(=O)[C@H](CC(=O)O)NC3=O)C(=O)N2 [compound 395],IC50,hNav1.7 [1]; [9],0.779 nM
same,Cmax,in vivo [2]; 1 mg/kg,79 nM
same,Tmax,in vivo [2]; 1 mg/kg,1 h
same,Cmax,in vivo [2]; 3 mg/kg,430 nM
same,Tmax,in vivo [2]; 3 mg/kg,3 h
same,Cmax,in vivo [2]; 10 mg/kg,970 nM
same,Tmax,in vivo [2]; 10 mg/kg,3 h
same,mean Cmax over the rat DRG Nav1.7,[3]; 1 mg/kg s.c.,56 fold
same,mean Cmax over the rat DRG Nav1.7,[3]; 3 mg/kg s.c.,306 fold
same,mean Cmax over the rat DRG Nav1.7,[3]; 10 mg/kg s.c.,684 fold
same,tolerability,"[3]; Sprague-Dawley rats, 1, 3 or 10 mg/kg single s.c. administration",All the doses were tolerated
same,mean Cmax over the mouse DRG Nav1.7 IC50,[4],46 fold
same,Cmax,in vivo [5],730 nM
same,half-life,in vivo [5],~2.3 h
same,Nav1.6/Nav1.7,hNav1.6,94
same,IC50,hNav1.6,73.2 nM
same,IC50,[6],15.9 nM
same,"potency relative to wild type peptide, in words",[6]; TTX-sensitive current in mouse DRG neurons,equipotent
same,Nav1.5/Nav1.7,hNav1.5,256
same,IC50,[7],9.25 nM
C#CC[C@H](N)C(=O)N[C@@H](Cc1ccc(O)cc1)C(=O)N[C@H]1CSSC[C@@H]2NC(=O)[C@@H]3CSSC[C@@H](C(=O)N[C@@H](CCCNC(=N)N)C(=O)N[C@@H](CCCCN)C(=O)N[C@@H](CCC(=O)O)C(=O)N[C@H](C(N)=O)[C@@H](C)CC)NC(=O)[C@H](Cc4c[nH]c5ccc(Br)cc45)NC(=O)[C@H](CC(C)C)NC(=O)[C@H](CCCCN)NC(=O)[C@H](CSSC[C@H](NC(=O)[C@H]([C@@H](C)O)NC(=O)[C@H](Cc4c[nH]c5ccccc45)NC(=O)[C@H](CCCC)NC(=O)[C@H](Cc4c[nH]c5ccccc45)NC(=O)[C@H](CCCCN)NC(=O)[C@H](CCC(N)=O)NC1=O)C(=O)N[C@@H](CC(=O)O)C(=O)N[C@@H](CO)C(=O)N[C@@H](CCCCN)C(=O)N[C@@H](CCCNC(=N)N)C(=O)N[C@@H](C)C(=O)N3)NC(=O)[C@H](CCCNC(=N)N)NC(=O)[C@H](CC(C)C)NC(=O)CNC(=O)[C@H](CCC(=O)O)NC2=O [compound 858],block of hNav1.7 current,hNav1.7 [8]; 100 nM,approximately 90%
same,IC50,"hNav1.7 [8]; WCPC, partially inactivated, hNav1.7, n=2, read-out: Mean IC50",0.13 nM
same,"potency against hNav1.7, in words",hNav1.7 [8]; manual WCPC,sub-nanomolar potent inhibitor
same,IC50,"hNav1.7 [1]; Table 12, PatchXpress, tonic block, read-out: PX hNav1.7 Tonic IC50",0.039 nM
same,IC50,hNav1.7 [1]; [9],0.059 nM
same,IC50,"hNav1.4; PatchXpress, tonic block, read-out: PX hNav1.4 Tonic IC50",40.4 nM
same,Nav1.4/Nav1.7,hNav1.4; ratio of PX tonic IC50 values,1036
same,Nav1.6/Nav1.7,hNav1.6,829
same,IC50,hNav1.6,49.2 nM
same,IC50,[6],3.8 nM
same,"block of TTX-sensitive Nav current, in words","[6]; 30 nM, C57 Black 6 mouse DRG neuron",blocks most of TTX-sensitive Nav current
same,"potency on TTX-S current in mDRG neurons, in words",[6]; manual patch clamp,single digit-nanomolar inhibitor
same,1.x/1.7,[6],29
"[Phe6,Atz(2 kDa EtO-PEG*-[Phe6,Atz13*]GpTx-1(1-34)1)13]GpTx-1(1-34) [Homodimeric Conjugate No. 3]",IC50,hNav1.7 [8]; read-out: Nav1.7 whole cell patch clamp [WCPC] IC50,0.58 nM
same,Wash out,hNav1.7 [1],No
same,IC50,hNav1.7 [1]; read-out: Nav1.7 PX IC50,13 nM
"C#CC[C@@H]1NC(=O)[C@@H]2CSSC[C@H](NC(=O)[C@H](Cc3ccc(O)cc3)NC(=O)[C@@H](N)CC#N)C(=O)N[C@@H](CCC(N)=O)C(=O)N[C@@H](CCCCN)C(=O)N[C@@H](Cc3c[nH]c4ccccc34)C(=O)N[C@@H](CCCC)C(=O)N[C@@H](Cc3c[nH]c4ccccc34)C(=O)N[C@@H]([C@@H](C)O)C(=O)N[C@H]3CSSC[C@H](NC(=O)[C@H](CCCNC(=N)N)NC(=O)[C@H](CC(C)C)NC(=O)CNC1=O)C(=O)N[C@@H](CCCCN)C(=O)N[C@@H](CC(C)C)C(=O)N[C@@H](Cc1c[nH]c4ccccc14)C(=O)N[C@H](C(=O)N[C@@H](CCCNC(=N)N)C(=O)N[C@@H](CCCCN)C(=O)N[C@@H](CCC(=O)O)C(=O)N[C@H](C(N)=O)[C@@H](C)CC)CSSC[C@H](NC(=O)[C@H](C)NC(=O)[C@H](CCCNC(=N)N)NC(=O)[C@H](CCCCN)NC(=O)[C@H](CO)NC(=O)[C@H](CC(=O)O)NC3=O)C(=O)N2 [CyA-[Nle6,Glu28]JzTx-V(1-29)]",IC50,[7],9.25 nM
C#CC[C@H](N)C(=O)N[C@@H](Cc1ccc(O)cc1)C(=O)N[C@H]1CSSC[C@@H]2NC(=O)[C@@H]3CSSC[C@@H](C(=O)N[C@@H](CCCNC(=N)N)C(=O)N[C@@H](CCCCN)C(=O)N[C@H](C(=O)N[C@H](C(N)=O)[C@@H](C)CC)[C@@H](C)CC)NC(=O)[C@H](Cc4c[nH]c5ccccc45)NC(=O)[C@H](CC(C)C)NC(=O)[C@H](CCCCN)NC(=O)[C@H](CSSC[C@H](NC(=O)[C@H]([C@@H](C)O)NC(=O)[C@H](Cc4c[nH]c5ccccc45)NC(=O)[C@H](CCCC)NC(=O)[C@H](Cc4c[nH]c5ccccc45)NC(=O)[C@H](CCCCN)NC(=O)[C@H](CCC(N)=O)NC1=O)C(=O)N[C@@H](CC(=O)O)C(=O)N[C@@H](CO)C(=O)N[C@@H](CCCCN)C(=O)N[C@@H](CCCNC(=N)N)C(=O)N[C@@H](C)C(=O)N3)NC(=O)[C@H](CCCNC(=N)N)NC(=O)[C@H](CC(C)C)NC(=O)CNC(=O)[C@H](CCC(=O)O)NC2=O [compound 425],"block of hNav1.7 current, in words","hNav1.7 [8]; held at −77 mV, partially inactivated state",fully blocked Nav1.7 current; also recorded: complete inhibition
same,"block of hNav1.7 current, in words","hNav1.7 [8]; held at −140 mV, fully non-inactivated state",fully blocked Nav1.7 current; also recorded: complete inhibition
same,improvement in hNav1.7 potency over wild type JzTx-V,hNav1.7 [8]; WCPC format,~200 fold and 190 fold
same,1.x/1.7,hNav1.7 [8]; fully non-inactivated,1
same,1.x/1.7,hNav1.7 [8]; partially inactivated,1
same,IC50,hNav1.7 [1]; [9],1.2 nM
same,Nav1.6/Nav1.7,hNav1.6,57
same,IC50,hNav1.6,67.9 nM
same,IC50,[6],5.35 nM
same,"inhibition of TTX-sensitive sodium current, in words","[6]; 1 nM as printed, mouse DRG neurons",almost complete inhibition
same,"block of TTX-sensitive Nav current, in words",[6]; 100 nM,blocked most TTX-sensitive Nav current
same,fold more potent than JzTx-V in inhibition of TTX-sensitive current,[6]; mouse DRG neurons,about 3 fold
same,1.x/1.7,[6],6335
"C#CC[C@@H]1NC(=O)[C@@H]2CSSC[C@H](NC(=O)[C@H](Cc3ccc(O)cc3)NC(=O)[C@@H](N)CC#N)C(=O)N[C@@H](CCC(N)=O)C(=O)N[C@@H](CCCCN)C(=O)N[C@@H](Cc3c[nH]c4ccccc34)C(=O)N[C@@H](CCCC)C(=O)N[C@@H](Cc3c[nH]c4ccccc34)C(=O)N[C@@H]([C@@H](C)O)C(=O)N[C@H]3CSSC[C@H](NC(=O)[C@H](CCCNC(=N)N)NC(=O)[C@H](CC(C)C)NC(=O)CNC1=O)C(=O)N[C@@H](CCCCN)C(=O)N[C@@H](CC(C)C)C(=O)N[C@@H](Cc1c[nH]c4ccccc14)C(=O)N[C@H](C(=O)N[C@@H](CCCNC(=N)N)C(=O)N[C@@H](CCCCN)C(=O)N[C@@H](CCC(=O)O)C(=O)N[C@H](C(N)=O)[C@@H](C)CC)CSSC[C@H](NC(=O)[C@H](C)NC(=O)[C@H](CCCNC(=N)N)NC(=O)[C@H](CCCCN)NC(=O)[C@H](CO)NC(=O)[C@H](CC(=O)O)NC3=O)C(=O)N2 [CyA-[Nle6, Pra17, Glu28]JzTx-V(1-29)]",IC50,mouse Nav1.4,32.2 nM
same,IC50,rNav1.7,1.41 nM
same,IC50,mNav1.7,4.8 nM
C#CC[C@H](N)C(=O)N[C@@H](Cc1ccc(O)cc1)C(=O)N[C@H]1CSSC[C@@H]2NC(=O)[C@@H]3CSSC[C@@H](C(=O)N[C@@H](CCCNC(=N)N)C(=O)N[C@@H](CCCCN)C(=O)N[C@H](C(=O)N[C@H](C(N)=O)[C@@H](C)CC)[C@@H](C)CC)NC(=O)[C@H](Cc4c[nH]c5ccccc45)NC(=O)[C@H](CC(C)C)NC(=O)[C@H](CCCCN)NC(=O)[C@H](CSSC[C@H](NC(=O)[C@H]([C@@H](C)O)NC(=O)[C@H](Cc4c[nH]c5ccccc45)NC(=O)[C@H](CCCC)NC(=O)[C@H](Cc4c[nH]c5ccccc45)NC(=O)[C@H](CCCCN)NC(=O)[C@H](CCC(N)=O)NC1=O)C(=O)N[C@@H](CC(=O)O)C(=O)N[C@@H](CO)C(=O)N[C@@H](CCC(=O)O)C(=O)N[C@@H](CCCNC(=N)N)C(=O)N[C@@H](C)C(=O)N3)NC(=O)[C@H](CCCNC(=N)N)NC(=O)[C@H](CC(C)C)NC(=O)CNC(=O)[C@H](CCCCN)NC2=O [Pra-[Nle6; Glu12; Lys17]JzTx-V(1-29)],IC50,mouse Nav1.4,2.77 nM
same,mNav1.4/mNav1.7,"mouse Nav1.4; ratio of PX tonic IC50, mouse Nav1.4 over mouse Nav1.7",2.2
same,IC50,rNav1.7,0.653 nM
same,rNav1.7/hNav1.7,"rNav1.7; ratio of PX tonic IC50, rat Nav1.7 over human Nav1.7",0.35
same,IC50,mNav1.7,1.27 nM
same,mNav1.7/hNav1.7,"mNav1.7; ratio of PX tonic IC50, mouse Nav1.7 over human Nav1.7",0.68

# From patent publication US10344060B2 (priority 2013, dated 2019)
